{"source": "patent US20150166617A1", "about": "“COMPOSITIONS AND METHODS OF TREATING ALZHEIMER'S DISEASE” (UNIVERSITY OF MIAMI, priority 2012, published 2015)", "key": {"[1]": {"tested_on": "Alzheimer's disease related genes", "experiment": "Mouse Alzheimer's Disease real-time quantitative PCR array on brain samples of 5XFAD mice", "format": "in vivo", "details": "brain of 5XFAD mice, 10 μg daily for six months", "method": "Total RNA was isolated and DNAse treated from representative hemispheria using NucleoSpin kit according to the manufacturer's instructions (Macherey-Nagel Inc., Bethlehem, Pa.). Five samples each from the control and the 10 μg MIA-690 group were analyzed. The yield and the quality of RNA samples were determined spectrophotometrically using 260 nm, and 260/280 and 260/230 nm ratio. The synthesis of cDNA was performed as follows. Briefly, 1 μg of RNA from each sample was reverse-transcribed into cDNA by RT First Strand kit (Qiagen). Reverse transcription was done in a Veriti 96-well thermal cycler (Applied Biosystems). The Mouse Alzheimer's Disease real-time quantitative PCR array (PAMM-057Z Qiagen) used in the study contains 84 unique genes related to Alzheimer's disease. All PCR arrays were performed using iQ5 Multicolor Real-Time Detections System (Bio-Rad). […] Data analysis of gene expression was performed using Excel based PCR Array Data Analysis Software provided by the manufacturer (Qiagen): fold-changes in gene expression were calculated using the ΔΔCt method and five stably expressed housekeeping genes (Act b, B2m, GAPDH, Gus b, Hsp 90 ab1) were used for normalization of the results."}, "HCN-2 cells": {"tested_on": "HCN-2 cells", "experiment": "Cell viability assay, HCN-2 cells treated with amyloid-β1-42 (MTT), Example 5", "format": "cell-based", "details": "10 μM amyloid-β1-42; peptide 10 nM, 100 nM, 1 μM; four days of exposure; FIG. 7", "method": "Differentiated HCN-2A neuronal cells were treated with 10 μM amyloid-β1-42 alone and in combination with 10 nM, 100 nM and 1 μM of MIA-602, MIA-606 and MIA 640. After the treatment, the cell viability was determinate as indicated by the supplier using the Promega Cell Titer 96® Aqueous Non-Radioactive Cell Proliferation Assay. The absorbance level was determined at 490 nm. Data are percentage of control (n=3).\nHCN-2 cells (American Type Culture Collection, Manassas, Va., USA) were cultured in DMEM medium (supplemented with 10% Fetal Bovine Serum (FBS) and 0.1% penicillin/streptomycin) at 37° C. and in an atmosphere of air and 5% CO2. Cell were directly plated into 96-well micro plates at 5,000 cells/cm^2. After 7 days, to allow cell number duplication (up to 70-80% confluence), the differentiation of HCN-2 cells was induced by adding fresh medium containing 25 ng/ml NGF, 0.5 mM dibutyryl cAMP and 0.5 mM isobutylmethylxanthine (IBMX) (all from Sigma-Aldrich, St. Louis, Mo.) for a week. Then, human amyloid-β1-42 (Sunnyvale, Calif.) stock solution (10 mM) was prepared in TRIS and then immediately diluted to appropriate concentrations in the assay medium. The medium used for neurotoxicity assay was N2-supplemented DMEMF12 (Gibco BRL, NY) with 2% FBS. The treatment groups were control, amyloid-β1-42, and the combination treatments with amyloid-β1-42 and 3 doses (10 nM, 100 nM and 1 μM) of the analogs (MIA-602, MIA-606 and MIA-640). The effect of the analogs on cell viability was evaluated after four days of exposure by using the 3-(4,5-Dimethylthiazol-2-yl)-2,5-diphenyltetrazolium bromide (MTT) assay (Cell Titer 96® Non-Radioactive Cell Proliferation Assay, Promega, Madison, Wis.), according to the manufacturer's instructions."}}, "note": "Square brackets hold non-standard residues; d marks the D form. Peptide text beside a SMILES is read from it. * marks the point of attachment. Phe(F5) = N[C@@H](Cc1c(F)c(F)c(F)c(F)c1F)C(=O)O; Phe(4-Cl) = N[C@@H](Cc1ccc(Cl)cc1)C(=O)O; hArg = N=C(N)NCCCC[C@H](N)C(=O)O; 12Ado = NCCCCCCCCCCCC(=O)O; Nle = CCCC[C@H](N)C(=O)O; Orn = NCCC[C@H](N)C(=O)O; Abu = CC[C@H](N)C(=O)O; PhAc = O=C(Cc1ccccc1)*", "data": [{"molecule": "CCCC[C@H](NC(=O)[C@@H](NC(=O)[C@H](CC(=O)O)NC(=O)[C@H](CCC(N)=O)NC(=O)[C@H](CC(C)C)NC(=O)[C@H](CC(C)C)NC(=O)[C@H](CCCN)NC(=O)[C@H](Cc1c[nH]cn1)NC(=O)[C@H](C)NC(=O)[C@H](CO)NC(=O)[C@H](CC(C)C)NC(=O)[C@H](CCC(N)=O)NC(=O)[C@H](CC)NC(=O)[C@H](CC(C)C)NC(=O)[C@@H](NC(=O)[C@H](CCCN)NC(=O)[C@H](Cc1c[nH]cn1)NC(=O)[C@H](Cc1c(F)c(F)c(F)c(F)c1F)NC(=O)[C@H](CCCCNC(=N)N)NC(=O)[C@H](C)NC(=O)[C@@H](NC(=O)[C@H](Cc1ccc(Cl)cc1)NC(=O)[C@@H](NC(=O)[C@H](C)NC(=O)[C@H](CC(=O)O)NC(=O)[C@@H](CCCNC(=N)N)NC(=O)[C@H](Cc1ccc(O)cc1)NC(=O)CCCCCCCCCCCNC(=O)Cc1ccccc1)[C@@H](C)CC)[C@@H](C)O)C(C)C)[C@@H](C)CC)C(=O)N[C@H](CCCNC(=N)N)C(=O)N[C@@H](CCCCNC(=N)N)C(N)=O", "note": "[MIA-690, Phac-Ada-Tyr^1-D-Arg^2-Asp^3-Ala^4-Ile^5-Cpa^6-Thr^7-Ala^8-Har^9-Fpa5^10-His^11-Orn^12-Val^13-Leu^14-Abu^15-Gln^16-Leu^17-Ser^18-Ala^19-His^20-Orn^21-Leu^22-Leu^23-Gln^24-Asp^25-Ile^26-Nle^27-D-Arg^28-Har^29-NH2] ({PhAc-12Ado}-Y[dR]DAI[Phe(4-Cl)]TA[hArg][Phe(F5)]H[Orn]VL[Abu]QLSAH[Orn]LLQDI[Nle][dR][hArg]-NH2)", "values": [{"measurement": "Fold change vs. controls: amyloid-β (A4) precursor protein binding family A, member 2", "setting": "[1]", "result": "−2.94", "unit": "fold"}, {"measurement": "Fold change vs. controls: amyloid-β (A4) precursor protein binding family B, member 3", "setting": "[1]", "result": "−2.04", "unit": "fold"}]}, {"molecule": "Phac-Ada-Tyr^1-D-Arg^2-Asp^3-Ala^4-Ile^5-Cpa^6-Thr^7-Ala^8-Har^9-Fpa5^10-His^11-Orn^12-Val^13-Leu^14-Abu^15-Gln^16-Glu^17-Ser^18-Ala^19-His^20-Orn^21-Leu^22-Leu^23-Gln^24-Asp^25-Ile^26-Nle^27-D-Arg^28-Har^29-Ada-NH2 [MIA-640]", "values": [{"measurement": "viability of neurons (HCN-2) under amyloid-β1-42 co-treatment", "setting": "HCN-2 cells", "result": "attenuated the toxic impact of co-treatment with amyloid-β1-42 on the viability of neurons"}]}, {"molecule": "Phac-Ada-Tyr^1-D-Arg^2-Asp^3-Ala^4-Ile^5-Phe(F)5^6-Thr^7-Ala^8-Har^9-Tyr(Me)^10-His^11-Orn^12-Val^13-Leu^14-Abu^15-Gln^16-Leu^17-Ser^18-Ala^19-His^20-Orn^21-Leu^22-Leu^23-Gln^24-Asp^25-Ile^26-Nle^27-D-Arg^28-Har^29-NH2 [MIA-602]", "values": [{"measurement": "viability of neurons (HCN-2) under amyloid-β1-42 co-treatment", "setting": "HCN-2 cells", "result": "attenuated the toxic impact of co-treatment with amyloid-β1-42 on the viability of neurons"}]}, {"molecule": "Phac-Ada-Tyr^1-D-Arg^2-Asp^3-Ala^4-Ile^5-Phe(F)5^6-Thr^7-Me-Ala^8-Har^9-Tyr(Me)^10-His^11-Orn^12-Val^13-Leu^14-Abu^15-Gln^16-Leu^17-Ser^18-Ala^19-His^20-Orn^21-Leu^22-Leu^23-Gln^24-Asp^25-Ile^26-Nle^27-D-Arg^28-Har^29-Agm-NH2 [MIA-606]", "values": [{"measurement": "viability of neurons (HCN-2) under amyloid-β1-42 co-treatment", "setting": "HCN-2 cells", "result": "attenuated the toxic impact of co-treatment with amyloid-β1-42 on the viability of neurons"}]}]}
